# Read-outs that look alike come from different tables or passages of the source.
# Experiments:
# IRE1α [1] = assay: IRE1α XBP1 splicing luciferase reporter, HEK293 cells; type: cell-based, human; settings: for COX-2-dependent stimulation of XBP1 mRNA splicing (IRE1α activity): HEK293, COX-2 siRNA vs scrambled, 24 hours, thapsigargin 0.5 µM, tunicamycin 5 µg/ml, DTT 1 mM, n = 16, Fig. 1D
# Protocol: HEK293 cells (human embryonic kidney cells; https://web.expasy.org/cellosaurus/CVCL_0045) were maintained under standard tissue culture conditions, including 5% CO2 with high humidity. Tissue culture media included 10% fetal bovine serum in DMEM (Sigma). Cell transfection, analysis of cell viability and luciferase assays were carried out as described previously.
# The pRL-IXFL XBP1 splicing reporter was a generous gift from Dr. R. Kaufman (Sanford Burnham Medical Discovery Institute) and contains an internal Renilla control and the nucleotide sequence encoding XBP1 followed by firefly luciferase separated by an internal ribosomal entry site (IRES) initiation region. This reporter will only generate firefly luciferase if the XBP1 sequence is spliced, bringing the firefly luciferase sequence to the correct reading frame.
# [2] = target: T1, IRE1-NLD (ER luminal domain of IRE1α) (Homo sapiens, UniProt O75460); assay: SPR, binding to immobilized IRE1-NLD; settings: CM5 chip, 10 mM Hepes pH 7.4, 150 mM NaCl, 0.005% P20, 30 μl/min, triplicate, 10 µM COX-2, BiP, PDIA6 flowed
# T1 construct: the ER luminal domain of IRE1α (IRE1-NLD); His6 (C); KDEL (ER retention signal) (C); made in house; host or cells: COS-1 cells
# T1 sequence (O75460 19-443 limits assumed): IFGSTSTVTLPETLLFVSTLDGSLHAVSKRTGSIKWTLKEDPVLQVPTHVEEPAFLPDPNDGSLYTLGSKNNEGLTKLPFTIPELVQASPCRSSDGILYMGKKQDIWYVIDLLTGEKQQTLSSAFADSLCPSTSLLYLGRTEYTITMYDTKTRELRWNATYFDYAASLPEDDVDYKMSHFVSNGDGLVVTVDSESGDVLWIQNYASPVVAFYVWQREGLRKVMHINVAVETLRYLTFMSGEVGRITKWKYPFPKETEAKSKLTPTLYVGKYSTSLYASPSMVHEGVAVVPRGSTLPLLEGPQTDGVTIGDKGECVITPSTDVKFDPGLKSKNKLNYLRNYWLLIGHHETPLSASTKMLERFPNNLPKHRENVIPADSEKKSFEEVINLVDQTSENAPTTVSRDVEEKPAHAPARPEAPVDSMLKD
# Protocol: Briefly, a CM5 chip was activated using a 1:1 dilution of EDC:NHS as previously described. Purified protein was diluted in 10 mM NaAc, pH 5 and injected over the activated CM5 chip followed by the blocking solution of 1 M ethanolamine, pH 9. A reference lane with no ligand coupled was generated to subtract background binding. The running buffer was composed of 10 mM Hepes, pH 7.2, 150 mM NaCl, 1 mM EDTA, 0.005% P20, and 2% ethanol. […] For each experiment, the signal was corrected against the control surface response to eliminate any refractive index changes due to buffer change. The data were collected at 25 °C at a flow rate of 30 µl/min to minimize mass transfer effects. Positive (cyclophilin) and negative controls (carbonic anhydrase) were included. Kinetic analysis was performed using the BiaEvaluation software (GE Life Sciences) with a 1:1 Langmuir binding model. Association and dissociation rates and affinity (KD) were calculated for each experiment and averaged. The binding response signals in RUs were continuously recorded and presented graphically as a function of time. For SPR analysis of COX-2 interaction with IRE1-NLD, the carboxymethylated dextran (CMD) surface of a CM5 chip was activated using a 1:1 dilution of EDC:NHS as previously described. Purified IRE1-NLD was captured at a flow rate of 5 μl/min to a total of ~1500 Response Units (RU). […]
# IRE1-NLD = assay: MST, COX-2 titrated to RED-labeled IRE1-NLD; type: binding; settings: red labelled IRE1-NLD, Suppl. Fig. S9
# Protocol: (§1) MST was carried out using a Monolith NT.115 instrument (NanoTemper). To evaluate COX-2 binding to IRE1-NLD, an increasing concentration of purified COX-2 protein (0–10 µM) was incubated with RED-labeled purified IRE1-NLD protein (NanoTemper; as per manufacturer’s protocol). The reverse was also performed, with RED-labeled purified COX-2 incubated with an increasing concentration of purified IRE1-NLD. Positive (cyclophilin A) and negative controls (carbonic anhydrase) were included. […] Positive (cyclophilin A) and negative controls (carbonic anhydrase) were included. […] Experiments were done in triplicate and data evaluation was performed using the Monolith software (NanoTemper).
# IRE1α [3] = assay: Co-immunoprecipitation of endogenous COX-2 and IRE1α, HEK293 cells; type: binding, human; settings: HEK293, triplicate, Fig. 5A
# Protocol: For immunoprecipitation experiments, HEK293 (endogenous IRE1α) or COS-1 cells transfected with the pED-IRE1-NLD-His6-KDEL expression vector were harvested by washing with cold Tris-buffered saline followed by scraping into cold lysis buffer (25 mM Tris-Cl, pH 8.0, 150 mM NaCl, 0.5% Nonidet P-40, and 0.5% sodium deoxycholate). The lysate was incubated on ice for 30 min followed by centrifugation and 30 min incubation at 4 °C with 60 µl of 10% slurry of Protein A/G Sepharose beads (Qiagen) to preclear the lysate. The beads were centrifuged briefly to pellet and washed with five times of cold lysis buffer while the supernatant was transferred to a new Eppendorf tube. For immunoprecipitation of IRE1α, IRE1-NLD or COX-2, 2 µl of anti-IRE1α, anti-His-tag antibodies, COX-2 antibody or an IgG control were added to the supernatant and incubated with rotation overnight at 4 °C. To pull-down the antibody, 100 µl of 10% slurry of Protein A/G Sepharose beads was added and the lysate was incubated 4 hours with rotation at 4 °C. The beads were centrifuged briefly to pellet and washed five times with 1 ml cold lysis buffer. The beads were pelleted, re-suspended in 100 µl SDS-PAGE sample buffer, with 20 µl separated on SDS-PAGE (10% acrylamide), followed by Immunoblot analysis using anti-IRE1α, anti-COX-2, or anti-His-tag antibodies. Experiments were done in triplicate.
# COX-2 = target: T2, COX-2 (Homo sapiens, UniProt P35354); type: binding
# T2 construct: COX-2 cDNA was purchased from OriGene and cloned into pET-22b containing a 6His-tag; 6His; made in house; host or cells: LEMO21 E. coli
# T2 sequence (P35354 18-604): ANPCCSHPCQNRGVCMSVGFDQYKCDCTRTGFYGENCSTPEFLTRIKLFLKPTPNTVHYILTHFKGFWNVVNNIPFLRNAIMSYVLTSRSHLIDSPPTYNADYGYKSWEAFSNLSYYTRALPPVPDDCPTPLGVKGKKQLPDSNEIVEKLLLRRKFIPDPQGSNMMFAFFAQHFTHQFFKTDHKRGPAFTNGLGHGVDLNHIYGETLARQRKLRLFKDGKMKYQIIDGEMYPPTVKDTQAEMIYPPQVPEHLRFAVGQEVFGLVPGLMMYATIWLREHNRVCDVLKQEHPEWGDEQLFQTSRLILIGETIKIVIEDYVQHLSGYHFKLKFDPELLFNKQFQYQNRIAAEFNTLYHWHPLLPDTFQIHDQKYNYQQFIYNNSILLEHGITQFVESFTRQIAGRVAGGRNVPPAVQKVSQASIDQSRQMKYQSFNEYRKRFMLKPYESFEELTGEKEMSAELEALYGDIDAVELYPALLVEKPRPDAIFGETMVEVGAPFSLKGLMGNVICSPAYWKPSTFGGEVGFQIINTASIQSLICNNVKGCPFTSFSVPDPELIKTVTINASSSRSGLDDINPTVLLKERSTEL
# Protocol: as §1
# COX-2 peroxidase = settings: stated without reference; cited from earlier work
# From the text: Next, we carried out XBP1 splicing reporter assays in the presence of inhibitors of COX-2 cyclooxygenase or peroxidase activity.
compound,measurement,setting,value
O[C@@H](CS)[C@@H](O)CS [DTT],COX-2-dependent stimulation of XBP1 mRNA splicing (IRE1α activity),IRE1α [1],did not have any effect on COX-2-dependent stimulation of XBP1 mRNA splicing
Cc1ccc(-c2cc(C(F)(F)F)nn2-c2ccc(S(N)(=O)=O)cc2)cc1 [celecoxib],XBP1 splicing reporter activity with COX-2 inhibitor,IRE1α [1],had no effect on the XBP1 splicing activity in the absence or presence of COX-2 silencing
C/C=C(/C)C(=O)O[C@H]1C(C)=C2[C@H]([C@@H]1OC(=O)CCCCCCC)[C@@](C)(OC(C)=O)C[C@H](OC(=O)CCC)[C@@]1(O)[C@H]2OC(=O)[C@@]1(C)O [thapsigargin],COX-2-dependent stimulation of XBP1 mRNA splicing (IRE1α activity),IRE1α [1],did not have any effect on COX-2-dependent stimulation of XBP1 mRNA splicing
"COX-2: purified COX-2 protein, 6His-tag, expressed in LEMO21 E. coli cells",Kd,[2],880 nM
same,"binding to IRE1-NLD (MST), wild-type and H374Y",IRE1-NLD,bound to IRE1-NLD
same,co-immunoprecipitation with endogenous IRE1α,IRE1α [3],co-immunoprecipitated with endogenous IRE1α
sodium ortho-vanadate,XBP1 splicing reporter activity with COX-2 inhibitor,"IRE1α [1]; 20 μM cyclosporine + inhibitor, in absence or presence of COX-2 silencing, Suppl. Fig. S5B","significant reduction of XBP1 splicing in the presence of COX-2, but not when COX-2 was silenced"
same,effect on cyclosporine binding to COX-2,COX-2,not affected
same,COX-2 peroxidase inhibition,COX-2 peroxidase,an inhibitor of COX-2 peroxidase activity
tunicamycin,COX-2-dependent stimulation of XBP1 mRNA splicing (IRE1α activity),IRE1α [1],did not have any effect on COX-2-dependent stimulation of XBP1 mRNA splicing
